Data on three compounds can be found in US20250109134A1 (Ascentage Pharma (Suzhou) Co., Ltd., priority 2022, published 2025).

The series can be described thus: Polymorph screening (suspension, anti-solvent, gas-liquid diffusion, slow volatilization methods), resulting form by XRPD. Type of series: physicochemical. To be noted: for XRPD results: anti-solvent method, methanol solution, no precipitation, open-to-air volatilization; for Crystalline form results / Crystalline form results 25° C. / Crystalline form results 50° C.: suspension; for Crystalline form results: 40° C., 3 days, from crystalline form A of sulfate salt; for Crystalline form results 25° C. / Crystalline form results 50° C.: from crystalline form B; for Crystalline form: suspension method. As for the experimental part: The sample was quickly centrifuged (6000 rpm, 5 min) to remove a supernatant. The resulting precipitate was subjected to vacuum drying (40° C., −0.1 MPa) for 20 h, followed by physical characterization.
The resulting precipitate was subjected to vacuum drying at 40° C. for 20 h, followed by physical characterization.
No clear solution was obtained, and the sample was still undissolved after 1 mL of solvent was added. Then, 500 μL of poor solvent (acetone, ACN, MeOH, EtOAc, THE, or […]) was added, and 40 mg of the sample was added to perform an experiment by a suspension method. All suspension samples were stirred at 50° C. for 2 days and quickly centrifuged (6000 rpm, 5 min) to remove a supernatant. The resulting solid was subjected to vacuum drying at 40° C. for 20 h, followed by physical characterization.
The compound of formula I was subjected to polymorph screening with DCM as a good solvent and with MeOH, EtOH, THE, or EA as an anti-solvent, and was dissolved in both DCM and MeOH systems. The suspension sample was stirred for 2 days and quickly centrifuged to remove a supernatant. The resulting precipitate was subjected to vacuum drying at 25° C. for 20 h, followed by physical characterization.
The resulting precipitate was subjected to vacuum drying at room temperature for 20 h, followed by physical characterization.
The resulting precipitate was subjected to vacuum drying for 20 h.
Sonication was performed for 1 min to obtain a clear solution, which was filtered through a 0.22 μm filter membrane and aliquoted into seven 8 mL glass flasks. An anti-solvent was added until precipitation occurred. The sample was stirred at room temperature for 1 day and quickly centrifuged. The resulting solid precipitate was subjected to vacuum drying.
Then, an anti-solvent was added until precipitation occurred, and the mixture was stirred at room temperature overnight and quickly centrifuged (6000 rpm, 6 min) to remove a supernatant. The resulting precipitate was subjected to vacuum drying for 20 h.
Then, the solution was added to a 20 mL glass flask containing 2 mL of an anti-solvent (shown in the following table), and the flask was tightly capped at room temperature and placed in a fume hood for diffusion. When precipitation occurred, the flask was taken out, and the resulting precipitate was subjected to vacuum drying for 20 h.
The flask placed in a fume hood at room temperature for diffusion. When precipitation occurred, the flask was taken out, and the resulting precipitate was subjected to vacuum drying for 20 h.
The mixture was stirred at 50° C. or room temperature for 6 days and quickly centrifuged (6000 rpm, […]) to remove a supernatant. The resulting precipitate was subjected to vacuum drying for 20 h.

[1] abbreviates: solvent Acetone-H2O = 1-2, 2 days.

Structures are written as SMILES.

Regarding `CC(C)N1Cc2cc(C(F)(F)F)ncc2-c2cnc(NCc3c(F)ccc4c3CCO4)n3cnc(c23)C1=O.O=S(=O)(O)O`, the XRPD results is on record as “Crystalline form B” (anti-solvent Acetone) and “Crystalline form A” (anti-solvent Heptane). Also, the Crystalline form results is “Crystalline form B” (solvent 88% acetone); “Crystalline form A of sulfate salt” (solvent ACN); “Crystalline form A” (solvent ACN—H2O = 1:1); “Crystalline form A of sulfate salt” (solvent Acetone); “Crystalline form A” (solvent DCM/MeOH = 1:1); “Sulfate salt forming into sulfate” (solvent EtOAc). In addition, the Crystalline form results (solvent EtOH) is listed as “Sulfate salt forming into sulfate”; the Crystalline form results (solvent EtOH—H2O = 3:1) is on record as “Crystalline form A”; the Crystalline form results (solvent IPA) is listed as “Sulfate salt forming into sulfate”; the Crystalline form results (solvent MeOH) is “Crystalline form A”; the Crystalline form results (solvent MeOH—H2O = 3:1) is “Crystalline form A”; the Crystalline form results (solvent THF) was “Crystalline form A of sulfate salt”. For the same compound, the Crystalline form results (solvent Toluene) was “Crystalline form A of sulfate salt”.
For the compound `CC(C)N1Cc2cc(C(F)(F)F)ncc2-c2cnc(NCc3c(F)ccc4c3CCO4)n3cnc(c23)C1=O` [crystalline form B], the “Crystalline form results 25° C.” value is, setting by setting: (solvent ACN, 2 days) “Crystalline form A”; (solvent ACN—H2O = 1-1, 2 days) “Crystalline form A”; under setting [1], “Crystalline form B”; (solvent Acetone, 2 days) “Crystalline form B”; (solvent EtOH, 2 days) “Crystalline form B”; (solvent EtOH—H2O 1-1, 2 days) “Crystalline form B”. The “Crystalline form results 25° C.” value is, setting by setting: (solvent EtOH—H2O = 3-1, 2 days) “Crystalline form B”; (solvent H2O, 2 days) “Crystalline form B”; (solvent Heptane, 2 days) “Crystalline form B”; (solvent MTBE, 2 days) “Crystalline form E”; (solvent MeOH, 2 days) “Crystalline form A”; (solvent MeOH—H2O 1-1, 2 days) “Crystalline form F”. For the same compound, the “Crystalline form results 25° C.” value is given as “Crystalline form A” (solvent MeOH—H2O = 3-1, 2 days); “Crystalline form B” (solvent THF, 2 days); “Toluene solvate” (solvent Toluene, 2 days). Also, the “Crystalline form results 50° C.” value is on record as “Crystalline form A” (solvent ACN, 2 days); “Crystalline form A” (solvent ACN—H2O = 1-1, 2 days); “Crystalline form B” under setting [1]; “Crystalline form B” (solvent Acetone, 2 days); “Crystalline form B” (solvent EtOAc, 2 days); “Crystalline form A” (solvent EtOH, 2 days). Further, the “Crystalline form results 50° C.” value is “Crystalline form A” (solvent EtOH—H2O 1-1, 2 days); “Crystalline form A” (solvent EtOH—H2O = 3-1, 2 days); “Crystalline form B” (solvent H2O, 2 days); “Crystalline form G” (solvent MTBE, 2 days); “Crystalline form A” (solvent MeOH, 2 days); “Crystalline form A” (solvent MeOH—H2O 1-1, 2 days). For the setting “solvent THF, 2 days”, the “Crystalline form results 50° C.” value is on record as “Crystalline form B”.
In the case of `CC(C)N1Cc2cc(C(F)(F)F)ncc2-c2cnc(NCc3c(F)ccc4c3CCO4)n3cnc(c23)C1=O` [compound of formula I], the Crystalline form result is, setting by setting: (solvent DCM/EA = 1-1, stirred 2 days) “Crystalline form A”; (solvent DCM/EtOH = 2-1, stirred 2 days) “Crystalline form A”; (solvent DCM/THF = 1-1, stirred 2 days) “Crystalline form A”; (solvent DCM, stirred 2 days) “Crystalline form A”; (solvent DMF/H2O = 1/3, 50° C., 2 days) “Crystalline form B + DMF solvate”; (solvent DMF, 50° C., 2 days) “Crystalline form B + DMF solvate”. The Crystalline form result is, setting by setting: (solvent NMP/ACN = 1/3, 50° C., 2 days) “N-methyl-2-pyrrolidone solvate”; (solvent NMP/EtOAc = 1/3, 50° C., 2 days) “N-methyl-2-pyrrolidone solvate”; (solvent NMP/H2O = 1/3, 50° C., 2 days) “Crystalline forms A + B”; (solvent NMP/MeOH = 1/3, 50° C., 2 days) “N-methyl-2-pyrrolidone solvate”; (solvent NMP/THF = 1/3, 50° C., 2 days) “N-methyl-2-pyrrolidone solvate”; (solvent NMP/acetone = 1/3, 50° C., 2 days) “N-methyl-2-pyrrolidone solvate”. Also, the Crystalline form entry (solvent NMP, 50° C., 2 days) is “N-methyl-2-pyrrolidone solvate”.
